Counter-ions that a name gives are not always drawn.
Target: human σ1 receptor (Homo sapiens, UniProt Q99720)
Test: biochemical
Assay type: binding
Design: μ and σ1 dual binding: key to the marks not given beside the values
Settings: not given

human σ1 receptor, sequence (Q99720 whole entry): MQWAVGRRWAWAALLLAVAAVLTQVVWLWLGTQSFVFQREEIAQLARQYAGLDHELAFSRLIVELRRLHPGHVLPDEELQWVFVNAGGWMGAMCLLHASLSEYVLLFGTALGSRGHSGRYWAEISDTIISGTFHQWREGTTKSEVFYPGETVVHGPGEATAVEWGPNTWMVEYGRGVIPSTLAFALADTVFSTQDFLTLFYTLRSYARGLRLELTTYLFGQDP

`Cl.O=C1COC2(CCN(CCc3ccccc3)CC2)CN1Cc1nccn1Cc1ccccc1` [Example 168, 4-((1-benzyl-1H-imidazol-2-yl)methyl)-9-phenethyl-1-oxa-4,9-diazaspiro[5.5]undecan-3-one hydrochloride] was tested, and the “μ and σ1 dual binding” value was “++”.
With `CC1OC2(CCN(CCc3ncccc3Cl)CC2)CN(c2cnccc2C(F)(F)F)C1=O.Cl` (centres unmarked) [Example 44, 9-(2-(3-chloropyridin-2-yl)ethyl)-2-methyl-4-(4-(trifluoromethyl)pyridin-3-yl)-1-oxa-4,9-diazaspiro[5.5]undecan-3-one hydrochloride] the “μ and σ1 dual binding” value was “++”.
`COc1ccc(CCN2CCC3(CC2)CN(c2ccccc2)C(=O)C(C)O3)cn1` (centres unmarked) [Example 111, 9-(2-(6-methoxypyridin-3-yl)ethyl)-2-methyl-4-phenyl-1-oxa-4,9-diazaspiro[5.5]undecan-3-one] was tested, and the “μ and σ1 dual binding” value was “++”.
In the case of `CC1OC2(CCN(CCc3ccccc3)CC2)CN(c2nc3ccccc3s2)C1=O.Cl` (centres unmarked) [Example 204, 4-(benzo[d]thiazol-2-yl)-2-methyl-9-phenethyl-1-oxa-4,9-diazaspiro[5.5]undecan-3-one hydrochloride], the “μ and σ1 dual binding” value is reported as “++”.
For `COc1cccc(CCN2CCC3(CC2)CN(c2ccccc2)CCO3)c1.Cl` [Example 320, 9-(3-methoxyphenethyl)-4-phenyl-1-oxa-4,9-diazaspiro[5.5]undecane hydrochloride], the “μ and σ1 dual binding” value was “++”.
In the case of `c1ccc(CCN2CCC3(CC2)CN(CCc2ccccc2)CCO3)cc1` [Example 337, 4,9-diphenethyl-1-oxa-4,9-diazaspiro[5.5]undecane dihydrochloride], the “μ and σ1 dual binding” value is reported as “++”.

`CC1OC2(CCN(CCc3cccs3)CC2)CN(c2ccccc2)C1=O` (centres unmarked) [Example 53, 2-methyl-4-phenyl-9-(2-(thiophen-2-yl)ethyl)-1-oxa-4,9-diazaspiro[5.5]undecan-3-one] and `CC1OC2(CCN(CCc3ccc(Cl)cn3)CC2)CN(c2ccccc2)C1=O` (centres unmarked) [Example 38, 9-(2-(5-chloropypridin-2-yl)ethyl)-2-methyl-4-phenyl-1-oxa-4,9-diazaspiro[5.5]undecan-3-one hydrochloride] cannot be ordered by Ki: under 100 nM for the first, under 500 nM for the second.

`CNC(=O)c1cccc(CCN2CCC3(CC2)CN(c2ccccc2F)C(=O)C(C)O3)c1` (centres unmarked) [Example 276, 3-(2-(4-(2-fluorophenyl)-2-methyl-3-oxo-1-oxa-4,9-diazaspiro[5.5]undecan-9-yl)ethyl)-N-methylbenzamide] and `CC1OC2(CCN(CCc3cccc(C(F)(F)F)n3)CC2)CN(c2ccccc2F)C1=O` (centres unmarked) [Example 31, 4-(2-fluorophenyl)-2-methyl-9-(2-(6-(trifluoromethyl)pyridin-2-yl)ethyl)-1-oxa-4,9-diazaspiro[5.5]undecan-3-one hydrochloride] cannot be ordered by Ki: under 500 nM for the first, under 500 nM for the second.

`COc1cccc(N2CC3(CCN(CCc4ccccc4)CC3)OC(C)C2=O)n1` (centres unmarked) [Example 211, 4-(6-methoxypyridin-2-yl)-2-methyl-9-phenethyl-1-oxa-4,9-diazaspiro[5.5]undecan-3-one hydrochloride] and `CC1OC2(CCN(CCc3ccccc3)CC2)CN(c2cscn2)C1=O` (centres unmarked) [Example 88, 2-methyl-9-phenethyl-4-(thiazol-4-yl)-1-oxa-4,9-diazaspiro[5.5]undecan-3-one hydrochloride] cannot be ordered by Ki: under 500 nM for the first, under 500 nM for the second.

In the case of `CC1OC2(CCN(CCc3ccccc3)CC2)CN(Cc2cccnc2)C1=O` (centres unmarked) [Example 159, 2-methyl-9-phenethyl-4-(pyridin-3-ylmethyl)-1-oxa-4,9-diazaspiro[5.5]undecan-3-one hydrochloride], the Ki is reported as under 100 nM.

Same assay, conditions: combined class from Ki-σ1 (human σ1 receptor, A1) and Ki-μ (human μ-opioid receptor, A2) radioligand binding

For `CC1OC2(CCN(CCc3ncccc3N)CC2)CN(c2ccccc2F)C1=O` (centres unmarked) [Example 232, 9-(2-(3-aminopyridin-2-yl)ethyl)-4-(2-fluorophenyl)-2-methyl-1-oxa-4,9-diazaspiro[5.5]undecan-3-one], the “μ and σ1 dual binding” value was “++”.
With `CC1OC2(CCN(CCc3ccc(NS(C)(=O)=O)cc3)CC2)CN(c2ccccc2)C1=O` (centres unmarked) [Example 258, N-(4-(2-(2-methyl-3-oxo-4-phenyl-1-oxa-4,9-diazaspiro[5.5]undecan-9-yl)ethyl)phenyl)methanesulfonamide] the “μ and σ1 dual binding” value was “++”.
`COc1cccc(N2CC3(CCN(CCc4ccccc4)CC3)OCC2=O)c1` [Example 8, 4-(3-methoxyphenyl)-9-phenethyl-1-oxa-4,9-diazaspiro[5.5]undecan-3-one] was tested, and the “μ and σ1 dual binding” value was “++”.
For `COc1ccc(CCN2CCC3(CC2)CN(c2ccccc2)C(=O)CO3)cc1` [Example 52, 9-(4-methoxyphenethyl)-4-phenyl-1-oxa-4,9-diazaspiro[5.5]undecan-3-one], the “μ and σ1 dual binding” value was “++”.

Same assay, conditions: read-out: μ and σ1 dual binding

`O=C1N(c2ccccc2)CC2(CCN(CCc3cccc([N+](=O)[O-])c3)CC2)OC12CC2` [Example 92, 8-(3-nitrophenethyl)-12-phenyl-4-oxa-8,12-diazaspiro[2.1.5.3]tridecan-13-one] and `O=C1N(Cc2ccc(C(F)(F)F)cn2)CC2(CCN(CCc3cccc([N+](=O)[O-])c3)CC2)OC12CC2` [Example 119, 8-(3-nitrophenethyl)-12-{[5-(trifluoromethyl)pyridin-2-yl]methyl}-4-oxa-8,12-diazadispiro[2.1.5.3]tridecan-13-one] cannot be ordered by Ki: over 500 nM for the first, over 500 nM for the second.

Compared with `CC1OC2(CCN(CCC(=O)N(C)c3ccccc3)CC2)CN(c2ccccc2)C1=O` (centres unmarked) [Example 100, N-methyl-3-(2-methyl-3-oxo-4-phenyl-1-oxa-4,9-diazaspiro[5.5]undecan-9-yl)-N-phenylpropanamide hydrochloride], `CC1OC2(CCN(CC(=O)Nc3ccccc3)CC2)CN(c2ccccc2)C1=O` (centres unmarked) [Example 71, 2-(2-methyl-3-oxo-4-phenyl-1-oxa-4,9-diazaspiro[5.5]undecan-9-yl)-N-phenylacetamide] is higher in Ki: under 500 nM for the first, over 500 nM for the second. The first binds more tightly here.

Going from `CC1OC2(CCN(CCc3cc(N)ccn3)CC2)CN(c2ccccc2)C1=O` (centres unmarked) [Example 30, 9-(2-(4-aminopyridin-2-yl)ethyl)-2-methyl-4-phenyl-1-oxa-4,9-diazaspiro[5.5]undecan-3-one hydrochloride] to `CC1OC2(CCN(CCc3cccnc3)CC2)CN(c2ccccc2)C1=O` (centres unmarked) [Example 73, 2-methyl-4-phenyl-9-(2-(pyridin-3-yl)ethyl)-1-oxa-4,9-diazaspiro[5.5]undecan-3-one], the Ki falls from over 500 nM to under 500 nM.

`Nc1cccc(CCN2CCC3(CC2)CN(Cc2ccc(C(F)(F)F)cn2)C(=O)C2(CC2)O3)c1` [Example 239, 8-(3-aminophenethyl)-12-{[5-(trifluoromethyl)pyridin-2-yl]methyl}-4-oxa-8,12-diazadispiro[2.1.5.3]tridecan-13-one] and `CC(C)(C)OC(=O)Nc1nc(CCN2CCC3(CC2)CN(Cc2ccc(C(F)(F)F)cn2)C(=O)C2(CC2)O3)cs1` [Example 120, tert-butyl (4-(2-(13-oxo-12-{[5-(trifluoromethyl)pyridin-2-yl]methyl}-4-oxa-8,12-diazadispiro[2.1.5.3]tridecan-8-yl)ethyl)thiazol-2-yl)carbamate] cannot be ordered by Ki: over 500 nM for the first, over 500 nM for the second.

`O=C1COC2(CCN(CCc3ccccc3)CC2)CN1c1cccc(F)c1` [Example 191, 4-(3-fluorophenyl)-9-phenethyl-1-oxa-4,9-diazaspiro[5.5]undecan-3-one] and `COc1cccc(CN2CC3(CCN(CCc4ccccc4)CC3)OCC2=O)c1` [Example 166, 4-(3-methoxybenzyl)-9-phenethyl-1-oxa-4,9-diazaspiro[5.5]undecan-3-one hydrochloride] cannot be ordered by Ki: under 500 nM for the first, under 500 nM for the second.

`CC1OC2(CCN(CCc3ccc([N+](=O)[O-])cc3)CC2)CN(c2ccccc2)C1=O` (centres unmarked) [Example 66, 2-methyl-9-(4-nitrophenethyl)-4-phenyl-1-oxa-4,9-diazaspiro[5.5]undecan-3-one] and `CC1OC2(CCN(CCc3cccnc3[N+](=O)[O-])CC2)CN(c2ccccc2)C1=O` (centres unmarked) [Example 27, 2-methyl-9-(2-(2-nitropyridin-3-yl)ethyl)-4-phenyl-1-oxa-4,9-diazaspiro[5.5]undecan-3-one] cannot be ordered by Ki: over 500 nM for the first, over 500 nM for the second.

First: CC1OC2(CCN(CCc3csc(N)n3)CC2)CN(c2cnccc2C(F)(F)F)C1=O (centres unmarked) [Example 309, 9-(2-(2-aminothiazol-4-yl)ethyl)-2-methyl-4-(4-(trifluoromethyl)pyridin-3-yl)-1-oxa-4,9-diazaspiro[5.5]undecan-3-one]
Second: Nc1nc(CCN2CCC3(CC2)CN(Cc2ccc(C(F)(F)F)cn2)C(=O)CO3)cs1 [Example 304, 9-(2-(2-aminothiazol-4-yl)ethyl)-4-((5-(trifluoromethyl)pyridin-2-yl)methyl)-1-oxa-4,9-diazaspiro[5.5]undecan-3-one]
The Ki of the first is higher: over 500 nM for the first, under 500 nM for the second. The second binds more tightly here.

`c1ccc(CN2CCOC3(CCN(CCc4ccccn4)CC3)C2)cc1` [Example 138, 4-benzyl-9-(2-(pyridin-2-yl)ethyl)-1-oxa-4,9-diazaspiro[5.5]undecane hydrochloride] and `c1ccc(CCN2CCC3(CC2)CN(Cc2cscn2)CCO3)cc1` [Example 325, 9-phenethyl-4-(thiazol-4-ylmethyl)-1-oxa-4,9-diazaspiro[5.5]undecane dihydrochloride] cannot be ordered by Ki: under 100 nM for the first, under 500 nM for the second.

`CC1OC2(CCN(CCc3ccccc3)CC2)CN(Cc2ccncc2)C1=O` (centres unmarked) [Example 162, 2-methyl-9-phenethyl-4-(pyridin-4-ylmethyl)-1-oxa-4,9-diazaspiro[5.5]undecan-3-one] and `O=C1COC2(CCN(CCc3ccccc3)CC2)CN1Cc1ccc(Cl)cn1` [Example 105, 4-((5-chloropyridin-2-yl)methyl)-9-phenethyl-1-oxa-4,9-diazaspiro[5.5]undecan-3-one hydrochloride] cannot be ordered by Ki: under 500 nM for the first, under 100 nM for the second.

Compared with `Oc1cccc(CCN2CCC3(CC2)CN(c2ccccc2)CCO3)c1` [Example 322, 3-(2-(4-phenyl-1-oxa-4,9-diazaspiro[5.5]undecan-9-yl)ethyl)phenol], `CC1OC2(CCN(CCc3ccccc3)CC2)CN(CC(=O)N2CCOCC2)C1=O` (centres unmarked) [Example 170, 2-methyl-4-(2-morpholino-2-oxoethyl)-9-phenethyl-1-oxa-4,9-diazaspiro[5.5]undecan-3-one hydrochloride] is higher in Ki: under 500 nM for the first, over 500 nM for the second. The first binds more tightly here.

With `COC(=O)CCN1CCC2(CC1)CN(c1ccccc1)C(=O)C(C)O2` (centres unmarked) [Example 64, methyl 3-(2-methyl-3-oxo-4-phenyl-1-oxa-4,9-diazaspiro[5.5]undecan-9-yl)propanoate] the Ki was over 500 nM.

From patent US10703765B2 (priority 2014, dated 2020)
